Consider three compounds from patent US6828315B1, “1-Amino triazoloc4,3-a! quinazoline-5-ones and/or -5-thiones inhibiting phosphodiesterase IV” (Warner-Lambert LLC, priority 1999, dated 2004).

As usually defined, the IC50 is the concentration needed to halve the response being measured. For orientation: melting point means the temperature of the solid-liquid transition.

The structures appear in SMILES notation.

The target of data set [1] is type 4 phosphodiesterases (PDE4). As to the kind of experiment: Inhibition of the phosphodiesterase (PDE4), enzymatic preparation from line U937. To be noted: PDE4 from cytosolic preparation of human cell line U937. In kind it is biochemical. Put shortly:
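PDE4 came from a cytosolic preparation of human U937 cells. Enzymatic activity was measured with inhibitor at 0.1 to 100 μM. IC50 was defined as the concentration inhibiting 50% of enzyme activity.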

Data set [2] deals with TNFα production by human leukocytes. As to the kind of experiment: Inhibition of TNFα production by human leukocytes stimulated by lipopolysaccharid. In kind it is cell-based. To be noted: Leukocyte; LPS-stimulated human leukocytes in 75% human serum; TNFα by ELISA after 15-18 hours. As to the method: This test aims to evaluate capacity of the compounds of the invention to inhibit TNFα (tumor necrosis-α) production by human leukocytes in the presence of high human serum concentration (75%). […] The test described here is based on the use of human leukocytes cultivated in 75% of human serum. It had been previously documented that these conditions simulate the observed situation when TNFα dosage is performed in human blood.
The compounds to test are dissolved into 20 mM (sometimes 6 mM) of DMSO. 100 μl of DMSO are distributed into 7 wells of a a 96 well microtiter plate (wells B to H). 150 μl of the compound solution are distributed into line A wells. 50 μl are then sequentially transferred 7 times. 20 μl of this serial dilutions of compounds are sequentially transferred twice in wells containing 180 μl of RPMI 1640 (Gibco). 50 μl of these dilutions are then transferred in wells where cells will be added.
Each test includes a series of eight wells without LPS (100% of inhibition), eight wells with LPS (0% of inhibition) and a series of Rolipram dilutions in order to enable comparison of the tests between each other and then to evaluate their variability.
A leukocyte vial is unfrozen in bain-marie (37° C.), its content is transferred into a 15 ml tube containing 10 ml of RPMI added with 5% of human serum (RPMI-5% HS). The cells are sedimented (800 g, 6 minutes, 4° C.), resuspended in 10 ml of the same medium and counted by dilution in Trypan blue solution. After centrifugating (800 g, 6 minutes, 4° C.), the cells are resuspended to 2×10^6/ml in human serum.
To 50 μl aliquots of different dilutions of compounds, 100 μl of cells are added. The plates are then incubated 30 minutes at 37° C., then 50 μl of solution 4 μg/ml of LPS prepared in human serum are added. The plates are incubated for the night at 37° C.
After incubation for 15-18 hours, 90 μl of growth supernatant are taken and transferred into rounded-bottom microtiter wells. The TNFα presence is then evaluated by ELISA (Pharmingen) by using 50 μl of supernatant. The protocol described by the manufacturer is strictly applied.
In general terms: ELISA stands for enzyme-linked immunosorbent assay.

Data set [3] concerns TNFα production in plasma. As to the kind of experiment: In vivo TNFα model in Wistar rat. The settings on record: po, 1.5 h, 10 mg/kg p.o. 30 min before LPS i.p., plasma TNFα 90 min after LPS, male Wistar rats, read-out: % Inhibition to 10 mg/kg. The text has this: The TFNα is a cytokin playing a central role in inflammation mechanisms. Its production may be induced by injection of lipopolysaccharid (LPS). It has been shown that the intracellular AMPc increase, produced in particular by PDE4 inhibitors, decreases the TNFα production in in vitro and in vivo models. Therefore it matters here to quantify in vivo anti-inflammatory potential of the compounds of the invention, administrated by oral route (p.o.) by measuring inhibition of TNFα production in plasma in rat, the latter having received a intraperitoneal injection (i.p.) of lipolysaccharid (LPS). The treatment by the compounds of the invention or the carrier is administrated by oral route in male Wistar rats, 30 min. before LPS injection. The rats are sacrificed 90 min. after LPS stimulation, the blood is harvested on EDTA and TNFα concentration is measured in each plasma sample.

The conditions of data set [4]: dose of 20 mg as a single intake; cited from earlier work.

Turning to `Cc1ccc2c(c1)c(=O)n(CC=Cc1cccnc1)c1nnc(N(C)C)n21` [Compound 104, 1-Dimethylamino-7-methyl-4-(3-pyridin-3-yl-allyl)-4H-[1,2,4]triazolo[4,3-a]quinazolin-5-one], the melting point stood at 155 °C. This compound returned an IC50 in data set [1] of 0.077 µM. In data set [2], this compound came in with an IC50 of 8.1 µM. Besides, the change in vivo at 10 mg/kg in data set [3] is -94%.

Compound `CN(C)c1nnc2n(CC=Cc3ccccc3)c(=O)c3cc(Br)ccc3n12` [Compound 85, 7-Bromo-1-dimethylamino-4-(3-phenyl-allyl)-4H-[1,2,4]triazolo[4,3-a]quinazolin-5-one] returned a melting point of 171 °C. Also, the IC50 in data set [1] was found to be 0.041 µM. Moreover, 6.8 µM corresponded to half-maximal inhibition in data set [2] (IC50). Besides, in data set [3], the change in vivo at 10 mg/kg was -77%.

Consider `COc1ccc([C@]2(C#N)CC[C@@H](C(=O)O)CC2)cc1OC1CCCC1` [Ariflo], for which the adverse events entry in data set [4] is “significant adverse events, of the nausea and vomiting type”.
